Assay results published in patent US20060074243A1, “Hydroxamic acid and amide compounds and their use as protease inhibitors” (Pharmacia Corporation, priority 2002, published 2006).

Experiments:
[1] = molecular target: T1, Human recombinant MMP-1 (Homo sapiens, UniProt P03956); assay: In vitro MMP inhibition analysis (fluorogenic peptide substrate cleavage), Ki; format: biochemical
T1 construct: made in house; host or cells: MMP-1-transfected HT-1080 cells (spent media)
T1 sequence (P03956 100-469): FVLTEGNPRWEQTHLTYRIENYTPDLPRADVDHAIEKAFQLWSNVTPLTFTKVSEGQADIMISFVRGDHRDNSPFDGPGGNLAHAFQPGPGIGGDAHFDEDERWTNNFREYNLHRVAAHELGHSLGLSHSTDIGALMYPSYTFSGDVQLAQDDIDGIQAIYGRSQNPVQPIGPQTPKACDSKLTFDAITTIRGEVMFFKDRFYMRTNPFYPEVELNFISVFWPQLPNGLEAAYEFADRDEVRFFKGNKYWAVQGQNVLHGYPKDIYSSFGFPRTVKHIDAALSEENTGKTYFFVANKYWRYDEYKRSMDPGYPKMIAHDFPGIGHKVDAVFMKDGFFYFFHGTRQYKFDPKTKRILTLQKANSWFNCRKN
Experimental: (§1) Several compounds and salts were analyzed in an in vitro assay to determine their ability to inhibit the MMP cleavage of peptide substrates. Inhibition constant (Ki) were calculated from the assayed compound-MMP interactions.
(§2) Human recombinant MMP-1, MMP-2, MMP-9, MMP-13, and MMP-14 were used in this assay. All enzymes were prepared in Assignee's laboratories following usual laboratory procedures. Protocols for the preparation and use of these enzymes are available in the scientific literature. See, e.g., Enzyme Nomenclature (Academic Press, San Diego, Calif., 1992) (and the citations therein). See also, Frije et al., J. Biol. Chem., 26(24), 16766-73 (1994).
The MMP-1 proenzyme was purified from the spent media of MMP-1-transfected HT-1080 cells provided by Dr. Harold Welgus of Washington University (St. Louis, Mo.). The protein was purified on a zinc chelating column.
(§3) All MMPs were activated using 4-aminophenylmercuric acetate (“APMA”, Sigma Chemical, St. Louis, Mo.) or trypsin. MMP-9 also was activated using human recombinant MMP-3 (purified in Assignee's laboratory following standard cloning and purification techniques).
(§4) The following fluorogenic, methoxycoumarin-containing polypeptide substrate (I) was used in the MMP inhibition assays: MCA-ArgProLeuGlyLeuDpaAlaArgGluArgNH2 (I) “MCA” is 7-methoxycoumarin-4-yl acetyl. Substrate (I) was prepared Assignee's laboratory. In the absence of MMP inhibitory activity, the substrate is cleaved at the Gly-Leu peptide bond. This cleavage separates the highly fluorogenic peptide from the 2,4-dinitrophenyl quencher, thus resulting in increase of fluorescent intensity.
(§5) The stock solutions of the assayed compounds and salts were prepared in […] (DMSO). These stock solutions were diluted in Buffer A (100 mM Tris-HCl, 100 mM NaCl, 10 mM CaCl2, 0.05% polyoxyethylene 23 lauryl ether, pH 7.5) to obtain solutions with different compound concentrations, i.e., assay solutions with different concentrations of the assayed […] compound. The experiment controls contained the same amount of Buffer A/DMSO as the assayed sample, but contained none of the tested compound or salt.
(§6) The assays from which the Ki determinations were made were performed as follows. The assayed compound samples were incubated in separate wells of untreated white polystyrene plates (Nunc Nalgene International, Rochester, N.Y.), and analyzed on a Tecan SpectraFlour Plus plate reader. The excitation wavelength was 330 nm, and the emission wavelength—420 nm. All samples (assayed compounds and controls) were incubated in separate plate wells at room temperature for 1 hr in the presence of 4 μM of MMP substrate (I). In the absence of MMP inhibitory activity, substrate (I) was cleaved at the Gly-Leu bond resulting in an increase of relative fluorescence. Inhibition was observed as a reduced rate of this increase in relative fluorescence. […] This protocol is a modification of method by Knight et al., FEBS Lett., 296(3), 263-266 (1992). Apparent inhibitory constants were determined by non-linear regression of reaction velocity as a function of inhibitor and enzyme concentration using Morrison's equation, as described by Kuzmic, Anal. Biochem. 286, 45-50 (2000). Modifications were made in the non-linear regression method to allow a common control reaction rate and effective enzyme concentration to be shared between all dose-response relationships on a given assay plate. Since the substrate concentration was chosen to be at or below the Km, the apparent Ki's from this analysis were reported as Ki's without correction for the influence of substrate.
(§7) The above protocols were used to determine Ki constants for the compounds in Examples 2-35 above. All Ki values in Table 1 are given in nM units.

[2] = molecular target: T2, Human recombinant MMP-14 (Homo sapiens, UniProt P50281); assay: as above; format: biochemical
T2 construct: The catalytic domain enzyme was expressed in E. coli inclusion bodies, solubilized in urea; made in house
Experimental: as §1, §2
The MMP-14 full length cDNA was provided by Dr. Gregory Goldberg of Washington University (St. Louis, Mo.). The catalytic domain enzyme was expressed in E. coli inclusion bodies, solubilized in urea, purified on a preparative […] reverse phase HPLC column, and then refolded in the presence of zinc acetate and purified for use.
as §3, §4, §5, §6, §7

Structure (SMILES) | Ki ([1]; Table 2) | Ki ([2]; Table 2) | Ki ([1]; Table 1) | Ki ([2]; Table 1)
CCc1cnc(-c2ccc(S(=O)(=O)C3(C(=O)NO)CCOCC3)cc2)nc1 [Example 122] | 3.58 µM | 315 nM | – | –
CCN1CCC(C(=O)NO)(S(=O)(=O)c2ccc(-c3cnc(CCC(C)(F)F)cn3)cc2)CC1 [Example 64] | – | – | > 10 µM | > 10000 nM
O=C(NO)C1(S(=O)(=O)c2ccc(-c3cnc(CCC(F)(F)C(F)(F)F)nc3)cc2)CCOCC1 [Example 142] | > 10 µM | > 10000 nM | – | –
O=C(NO)C1(S(=O)(=O)c2ccc(-c3cnc(CCC4CC4)cn3)cc2)CCOCC1 [Example 49] | – | – | > 10 µM | 3620 nM
O=C(NO)C1(S(=O)(=O)c2ccc(-c3cnc(N4CCCCC4)cn3)cc2)CCOCC1 [Example 131] | > 10 µM | 6240 nM | – | –
CCN1CCC(C(=O)NO)(S(=O)(=O)c2ccc(-c3ccc(-c4ccncc4)cc3)cc2)CC1 [Example 136] | 1.07 µM | 308 nM | – | –
O=C(NO)C1(S(=O)(=O)c2ccc(-c3cnc(N4CCCC4)cn3)cc2)CCOCC1 [Example 138] | > 10 µM | 1110 nM | – | –
O=C(NO)C1(S(=O)(=O)c2ccc(-c3ccc(-c4ccncc4)cc3)cc2)CCOCC1 [Example 141] | 0.257 µM | 79.4 nM | – | –
COCCN1CCC(C(=O)NO)(S(=O)(=O)c2ccc(-c3ccc(-c4ccccc4)cc3)cc2)CC1 [Example 152] | 0.842 µM | 144 nM | – | –
O=C(NO)C1(S(=O)(=O)c2ccc(-c3noc(-c4ccc(F)cc4)n3)cc2)CCOCC1 [Example 134] | 5.91 µM | 67.1 nM | – | –
CCc1csc(Nc2ccc(-c3ccc(S(=O)(=O)C4(C(=O)NO)CCOCC4)cc3)cc2)n1 [Example 124] | > 2.5 µM | 6230 nM | – | –
O=C(NO)C1(S(=O)(=O)c2ccc(-c3cnc(C4CCCC4)cn3)cc2)CCOCC1 [Example 162] | > 10 µM | 7350 nM | – | –
CCN1CCC(C(=O)NO)(S(=O)(=O)c2ccc(-c3ccc(-c4csc(C)n4)cc3)cc2)CC1 [Example 155] | 3.86 µM | 283 nM | – | –
O=C(NO)C1(S(=O)(=O)c2ccc(-c3ccc(CCCC(F)(F)F)cn3)cc2)CCN(C2CC2)CC1 [Example 51] | – | – | 9.6 µM | 1890 nM
COCCN1CCC(C(=O)NO)(S(=O)(=O)c2ccc(-c3cnc(CCC(C)(F)F)cn3)cc2)CC1 [Example 65] | – | – | > 10 µM | 5970 nM
CN1CCC(C(=O)NO)(S(=O)(=O)c2ccc(-c3ccc(OC(F)(F)C(F)F)cc3)cc2)CC1 [Example 146] | 1.24 µM | 1050 nM | – | –
CC(F)(F)CCc1cnc(-c2ccc(S(=O)(=O)C3(C(=O)NO)CCOCC3)cc2)cn1 [Example 60] | – | – | > 10 µM | 1880 nM
COCCC(C(=O)NO)S(=O)(=O)c1ccc(-c2ccc(CCCC(F)(F)F)cc2)cc1 (centres unmarked) [Example 47] | – | – | > 10 µM | 5260 nM
O=C(NO)C1(S(=O)(=O)c2ccc(-c3ccc(CCC4CCCCC4)cn3)cc2)CCOCC1 [Example 129] | 4.41 µM | 745 nM | – | –
O=C(NO)C1(S(=O)(=O)c2ccc(-c3ccc(CCC(F)(C(F)(F)F)C(F)(F)F)cn3)cc2)CCOCC1 [Example 133] | 7.4 µM | 4150 nM | – | –
CCCCOc1cnc(-c2ccc(S(=O)(=O)C3(C(=O)NO)CCOCC3)cc2)cn1 [Example 73] | 1.74 µM | 159 nM | – | –
O=C(NO)C1(S(=O)(=O)c2ccc(-c3ccc(OC(F)(F)C(F)F)cc3)cc2)CCN(C2CC2)CC1 [Example 40] | – | – | 0.508 µM | 292 nM
COCCN1CCC(C(=O)NO)(S(=O)(=O)c2ccc(-c3ccc(CCCC(F)(F)F)cn3)cc2)CC1 [Example 54] | – | – | 6.37 µM | 1110 nM
O=C(NO)C1(S(=O)(=O)c2ccc(-c3ccc(CCC(F)(F)C(F)(F)F)cn3)cc2)CCN(C2CC2)CC1 [Example 50] | – | – | 7.88 µM | 1190 nM
CC(F)(F)CCc1cnc(-c2ccc(S(=O)(=O)C3(C(=O)NO)CCN(C4CC4)CC3)cc2)cn1 [Example 66] | – | – | > 10 µM | 4260 nM

More lines, now with the values ahead:

Ki ([1]; Table 2) | Ki ([2]; Table 2) | Ki ([1]; Table 1) | Ki ([2]; Table 1) | Structure (SMILES)
– | – | 2.12 µM | 453 nM | O=C(NO)C1(S(=O)(=O)c2ccc(-c3ccc(CCCC(F)F)cc3)cc2)CCOCC1 [Example 57]
– | – | 2.17 µM | 390 nM | CC(F)(F)CCc1ccc(-c2ccc(S(=O)(=O)C3(C(=O)NO)CCN(C4CC4)CC3)cc2)cc1 [Example 59]
– | – | 4.72 µM | 523 nM | O=C(NO)C1(S(=O)(=O)c2ccc(-c3ccc(CCC(F)(F)C(F)(F)F)cn3)cc2)CCOCC1 [Example 36]
– | – | 0.231 µM | 235 nM | O=C(NO)C1(S(=O)(=O)c2ccc(-c3ccc(OC(F)(F)C(F)F)cc3)cc2)CCOCC1 [Example 68]
1.24 µM | 905 nM | – | – | O=C(NO)C1(S(=O)(=O)c2ccc(-c3ccc(-n4cncn4)cc3)cc2)CCOCC1 [Example 126]
– | – | 2.71 µM | 800 nM | O=C(NO)C1(S(=O)(=O)c2ccc(-c3ccc(CCCC(F)(F)F)cc3)cc2)CCOCC1 [Example 42]
– | – | 1.45 µM | 632 nM | CCOCCOc1ccc(-c2ccc(S(=O)(=O)C3(C(=O)NO)CCOCC3)cc2)cc1 [Example 37]
– | – | > 10 µM | 8450 nM | CC(C)(C)N1CCC(C(=O)NO)(S(=O)(=O)c2ccc(-c3ccc(CCCC(F)(F)F)cc3)cc2)CC1 [Example 48]
3.48 µM | 599 nM | – | – | O=CN1CCC(C(=O)NO)(S(=O)(=O)c2ccc(-c3ccc(CCCC(F)(F)F)cn3)cc2)CC1 [Example 159]
3.97 µM | 621 nM | – | – | CCCCCc1ccc(-c2ccc(S(=O)(=O)C3(C(=O)NO)CCOCC3)cc2)cc1 [Example 75]
– | – | 8.69 µM | 2160 nM | O=C(NO)C1(S(=O)(=O)c2ccc(-c3ccc(CCCC(F)(F)F)cc3)cc2)CCN(C2CC2)CC1 [Example 44]
– | – | > 10 µM | 1730 nM | O=C(NO)C1(S(=O)(=O)c2ccc(-c3ccc(CCC(F)(F)C(F)(F)F)cc3)cc2)CCN(C2CC2)CC1 [Example 45]
